Test results reported in patent US12029730B2, “Pharmaceutical composition for preventing or treating cancer, containing N-1H-benzimidazol-2-yl-3-(1H-pyrrole-1-yl)benzamide as active ingredient” (KOREA INSTITUTE OF RADIOLOGICAL & MEDICAL SCIENCES, priority 2018, dated 2024).

Tests used:
Format in all cases: cell-based, human
MCF7 cells [1] = test: 3D culture spheroid formation; conditions: MCF7 3D culture, AT13148 2 μM, GKI-1 10 μM, MKI-1 10 μM, FIG. 9
Procedure: 3D culture was performed according to the protocol of the manufacturing company TheWell Bioscience. It was inoculated into 24-wells containing a DMEM mixture containing 10,000 MCF7 cells in an MCF7 cell:hydrogel solution in a ratio of 1:3 (v/v) and VitroGel™ 3D-RGD diluted with 0.1% PBS in a ratio of 1:3 (v/v) of a hydrogel:diH2O. Thereafter, incubation was performed at 37° C. for 15 minutes to stabilize the VitroGel 3D-RGD hydrogel. To cover the hydrogel, the same volume of DMEM as the hydrogel was added, and the next day, the hydrogel was treated with a DMSO base drug containing DMSO, AT13148 (2 μM), GKI-1 (10 μM) and MKI-1 (10 μM). The medium was exchanged every 2 days for 14 to 20 days.

MCF7 cells [2] = test: WST-8 cell viability assay, breast cancer cell line MCF7; conditions: for cell viability, MCF7: 3.70, 11.11, 33.33 and 100 μM
Procedure: (§1) In addition, the cell line in this experiment was distributed from ATCC (American Type Culture Collection; Manassas, VA). Human-derived tumor cell lines, breast cancer cell lines MCF7 and T47D was cultured in DMEM medium containing 10% fetal bovine serum (FBS; HyClone, South Logan, UT) and 1% penicillin/streptomycin (Corning, NY, USA) at 37° C. and 5% CO2, and the BT549 breast cancer cell line was cultured in RPMI 1640 (Welgene, Daegu, Korea) as a medium used under the same conditions. Human-derived normal cell line MCF10A was cultured in DMEM/F12 (Invitrogen) medium containing 5% horse serum (Invitrogen), 1% penicillin/streptomycin, 20 ng/ml EGF (Peprotech, London, UK), […] (Sigma-Aldrich, MO, USA), 100 ng/ml cholera toxin (Cholera Toxin, Sigma-Aldrich) and 10 μg Insulin (Sigma-Aldrich) at 37° C. and 5% CO2.
(§2) Briefly, MCF7 and MCF10A cells were seeded into 96-well plates, incubated for 24 hours, and then was treated with 42 inhibitor candidates. Among the compounds, the multi-AGC kinase inhibitor AT13148 was used as a positive control. Thereafter, the absorbance was measured at 450 nm using a Versamax microplate reader (Molecular Devices, CA, USA), and the results of the experiment were shown in FIG. 1A.
(§3) In order to confirm whether the selected MKI-1 can kill only cancer cells, an experiment was performed by treating with MKI-1 and measuring whether the cell viability of breast cancer cell lines and normal cell lines was changed. WST-8 analysis (Cyto X™ cell viability assay kit, LPS solution, Daejeon, Korea) was performed according to the manufacturer's protocol. Cancer cells MCF7 and BT549 and normal cell line MCF10A cells were inoculated into a 96-well plate, cultured for 24 hours, and then treated with MASTL kinase inhibitors at various concentrations (3.70, 11.11, 33.33 and 100 μM). Thereafter, the absorbance was measured at 450 nm using a Versamax micro plate reader (Molecular Devices, CA, USA), and the results were shown in FIG. 6.

MCF7 cells [3] = test: Colony formation analysis; conditions: MCF7, cultured 15 days, compared to DMSO, FIG. 7
Procedure: Colony formation analysis was performed to confirm whether the selected MKI-1 can effectively kill cancer cells. First, breast cancer cells MCF7 (500-1000 cells) were cultured in a 60 mm culture plate, and after 24 hours, it was treated with MASTL kinase inhibitors (AT13148, MKI-1 and GKI-1), respectively and cultured for 15 days. Cells were fixed and stained with […] to which methanol was added to quantify the number of colonies, which was shown in FIG. 7.

MCF7 cells [4] = test: Tumorsphere formation assay; conditions: MCF7, cultured 15 days, compared to DMSO, FIG. 8
Procedure: A tumorsphere formation assay was performed in order to determine whether the selected MKI-1 can effectively reduce the formation of tumorsphere in cancer cells, Breast cancer cells MCF7 (2500-10000 cells) was suspended in serum-free DMEM/F12 (weIGENE) containing 1% penicillin, B-27 (1:50; invitrogen), 20 ng/mL epidermal cell growth factor (R&D Systems) and 20 ng/mL fibroblast growth factor (R&D Systems) and cultured on plates with low adhesion rate. After 24 hours, the cells were treated with MASTL kinase inhibitors (AT13148, MKI-1 and GKI-1), respectively, and cultured for 15 days, and then the diameter of the tumorsphere was measured and quantified, which was shown in FIG. 8.

MCF7 cells [5] = test: Colonogenic assay and western blotting with 2.5 Gy radiation, MCF7; conditions: for sensitivity to radiation therapy (colony number): MCF7, 2.5 Gy, compared to DMSO, FIG. 10A/10B
Procedure: A colonogenic assay was performed in order to confirm whether the sensitivity to the radiation treatment effect can be increased when MCF7 cancer cell line was treated with MKI-1. First, breast cancer cells MCF7 (500-1000 cells) were placed in a 60-mm tissue culture medium on a 60 mm culture plate, and treated with MASTL kinase inhibitors (AT13148, MKI-1 and GKI-1), respectively, and then was treated with 2.5 Gy radiation by Biobeam GM8000 (Gamma-Gamma-Service Medical GmbH, Leipzig, Germany) and the control group was not treated with radiation. After 10 to 14 days, the cell colonies were fixed with methanol and stained with 0.5% crystal violet, and the results were shown in FIG. 10A, and the number of colonies shown in the above results was quantified using Image J software to show in 10B, and then western blotting was performed and the results thereof were shown in FIG. 10C.

[6] = tested on: CD44^high/CD24^low MCF7 cells; test: Colonogenic assay and western blotting with 2.5 Gy radiation, radioresistant CD44high/CD24low MCF7; conditions: for sensitivity to radiation therapy (colony number): CD44high/CD24low MCF7, 2.5 Gy, compared to DMSO, FIG. 11A/11B
Procedure: A colonogenic assay was performed in order to confirm whether the sensitivity to the radiation treatment effect was increased even in the CD44^high/CD24^low MCF7 cancer cell line having a radioresistant phenotype, when it was treated with MKI-1. First, breast cancer cells CD44^high/CD24^low MCF7 (500-1000 cells) were placed in a 60-mm tissue culture medium on a 60 mm culture plate, and treated with MASTL kinase inhibitors (AT13148, MKI-1 and GKI-1), respectively, and then was treated with 2.5 Gy radiation by Biobeam GM8000 (Gamma-Gamma-Service Medical GmbH, Leipzig, Germany) and the control group was not treated with radiation. After 10 to 14 days, the cell colonies were fixed with methanol and stained with 0.5% crystal violet, and the results were shown in FIG. 11A, and the number of colonies shown in the above results was quantified using Image J software to show in 11B, and then western blotting was performed and the results thereof were shown in FIG. 11C.

BT549 cells = test: WST-8 cell viability assay, breast cancer cell line BT549; conditions: FIG. 6; for cell viability, BT549: 3.70, 11.11, 33.33 and 100 μM
Procedure: as §1, §3

MCF10A cells = test: WST-8 cell viability assay, normal cell line MCF10A; conditions: for cell viability, normal cell line MCF10A: 3.70, 11.11, 33.33 and 100 μM, FIG. 6
Procedure: as §1, §2, §3

[7] = screen of 42 single compounds, FIG. 1A
[8] = MCF7, after radiation treatment, FIG. 10C
[9] = CD44high/CD24low MCF7, after radiation treatment, FIG. 11C

| SMILES | size of cancer cell spheroid (MCF7 cells [1]) | cell viability, MCF7 (MCF7 cells [2]; FIG. 6) | number of cancer cell colonies (MCF7 cells [3]) | tumorsphere diameter (MCF7 cells [4]) | sensitivity to radiation therapy (colony number) (MCF7 cells [5]) | sensitivity to radiation therapy (colony number) [6] | cell viability, BT549 (BT549 cells) | cell viability, normal cell line MCF10A (MCF10A cells) | survival rate of cancer cells, MCF7 (MCF7 cells [2]; 33.33 μM or more, FIG. 6) | growth of the treated cancer cell line (MCF7) (MCF7 cells [2]; [7]) | expression levels of cleaved-PARP and phosphorylated Chk2 (MCF7 cells [5]; [8]) | expression levels of procaspase-2 (MCF7 cells [5]; [8]) | expression levels of cleaved-PARP and phosphorylated Chk2 [6, 9] | expression levels of procaspase-2 [6, 9] | survival rate of cancer cells, BT549 (BT549 cells; 33.33 μM or more) | cell viability of normal cell line (MCF10A) (MCF10A cells; [7]) |
| --- | --- | --- | --- | --- | --- | --- | --- | --- | --- | --- | --- | --- | --- | --- | --- | --- |
| Clc1ccc(Nc2cccc(-c3cn[nH]c3)c2)cc1 [GKI-1, N-(4-chlorophenyl)-3-(1H-pyrazol-4-yl)aniline, reference compound] | hardly decreased | decreases cell viability in a dose-dependent manner | hardly decreased | hardly decreased | no synergistic effect | no synergistic effect | decreases cell viability in a dose-dependent manner | hardly decrease cell viability | – | – | – | – | – | – | – | – |
| O=C(Nc1nc2ccccc2[nH]1)c1cccc(-n2cccc2)c1 [MKI-1, N-1H-benzimidazol-2-yl-3-(1H-pyrrol-1-yl) benzamide] | significantly reduced | decreases cell viability in a dose-dependent manner | significantly reduced | significantly decreased | significantly higher | significant increase in sensitivity to radiation treatment | decreases cell viability in a dose-dependent manner | hardly decrease cell viability | significantly reduced | significantly inhibited | increased | decreased | increased | decreased | significantly reduced | maintained as high as that of the control group DMSO |
